Here are results for two substances from patent publication EP4483904A1, “POLYOXOMETALATES AS MEMBRANE CARRIERS” (Universität Wien, priority 2023, dated 2025).

One data set relates to CHO-K1 cells. Description: Cellular viability assay (MTT assay, resazurin readout). It counts as cell-based. The settings on record: 10 µM and below, after 24 h. The procedure: For MTT assays in presence of activators, CHO-K1 cells were incubated in Ham's F-12 medium containing 10 % fetal bovine serum and 1.0 % penicillin streptomycin at 37 °C in a 5 % CO2 for 24 hours. CHO-K1 cells were dispersed in a 96-well flat bottom tissue culture treated plates (Eppendorf) at density of 5×10^3 cells/well (per 100 µL) and incubated in Ham's F-12 containing 10 % (v/v) fetal bovine serum at 37 °C in a 5 % CO2 incubator for 12 h to allow cell adhesion. Then, cells were incubated with POM, B12Br12^2-, or PyBu (10 µM, 50 µM, 100 µM) for another 24 h. After this incubation time, 20 µL resazurin solution (0.15 mg/mL) was added to cells and incubated for another 3 h. Finally, the plates were read at λem = 590 nm (λex = 560 nm) using a JASCO fluorometer FP-8500.
The cell viability was evaluated by the following equation: Cells viability = (FIsample −FIblank)/(FIcontrol −FIblank) × 100% [formula]
Where, FIsample is the fluorescence intensity of cells incubated with different compounds, FIblank is the fluorescence intensity of medium, and FIcontrol is the fluorescence intensity of cells in absence of any compound.

The nature of data set [1]: U-tube transport experiments (CF transport through chloroform layer). The settings on record: CF 100 µM, POM 50 µM, heptaArg 10 µM. The procedure: The U-tubes were house-made, similar to those of Rebek and Matile consisting in a small beaker with a central glass barrier, separating the two aqueous layers, cis (sampling phase) and trans (receiving phase), but allowing an interface chloroform layer below the cis and trans phases. 3 mL CHCl3 are placed into the U-tube and 1 mL of the cis (combinations of carrier (POM), cargo (heptaArg) and CF in buffer) and trans (1 mL buffer) phases were added. The organic phase was stirred at 700 rpm at room temperature. Aliquots (25 µL) from the trans phase were taken at different times, 400 µL of buffer were added and measured by fluorescence.
In the U-tube experiments, the trans phase contained only buffer, and the cis phase is loaded with combinations of CF, carrier (POM) and cargo (heptaArg). Aliquots of the trans phase are taken and evaluated by fluorescence at different times. The trans phase is initially (t= 0) nonfluorescent, but the transport of CF from the cis phase through the chloroform barrier leads to a fluorescence signal for successful transport. […] In the ternary mixture, however, as expected, highly efficient transport is observed. This is consistent with the transport of a POM•heptaArg•CF complex through the organic phase. […]

What is called viability is a read-out of living cells in per cent, often relative to untreated cells. Read a high viability as better survival. In the data set on CHO-K1 cells, K4[α-P^VV^VW^VI11O40]·4H2O [[PVW11]^4-] displayed a viability of approximately 80%. Moreover, in data set [1], the “carrier transport through hydrophobic bulk phase (U-tube)” value is “can seize and transport a hydrophilic cargo even through a hydrophobic bulk phase”.

For “K4[α-Si^IVMo^VIW^VI11O40]·24H2O [[SiMoW11]^4-]”, the viability in the data set with CHO-K1 cells is reported as approximately 80%. The “carrier transport through hydrophobic bulk phase (U-tube)” value in data set [1] is “can seize and transport a hydrophilic cargo even through a hydrophobic bulk phase”.
